Among the data in PubChem BioAssay (NCI) are TGI values, retold here.

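48-hour exposure; five concentrations; linearly interpolated endpoints. TGI denotes the concentration required for complete inhibition of growth.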

Test systems include HOP-62 NSCLC; ACHN renal; SNB-19 CNS; K-562 leukemia; OVCAR-4 ovarian; DU-145 prostate; HCT-116 colon; BT-549 breast; A498 renal; T-47D breast; NCI-H226 lung; MDA-N; NCI/ADR-RES ovarian; SK-MEL-5 melanoma; HCT-15 colon; COLO 205 colon; UACC-62 melanoma; A549 NSCLC; LOX IMVI melanoma; HOP-92 NSCLC.
What all share (experiment): growth of human tumour cells (NCI), 48 h

For the compound `Cc1cc(C(=O)CCCCOc2ccc(C3=NCCO3)cc2)c(C)n1C`, the TGI was above 100 µM with HOP-62 NSCLC; above 100 µM in the test with ACHN renal; above 100 µM in the test with SNB-19 CNS; above 100 µM with K-562 leukemia; above 100 µM with OVCAR-4 ovarian; 79.8 µM with DU-145 prostate. Also, the TGI is above 100 µM in the test with HCT-116 colon; above 100 µM in the test on BT-549 breast; 86.8 µM with A498 renal; 65.6 µM in the test on T-47D breast; 98 µM in the test on NCI-H226 lung; 88 µM in the test on MDA-N. The TGI in the test on NCI/ADR-RES ovarian was above 100 µM; in the test with SK-MEL-5 melanoma it was 34.9 µM; in the test with HCT-15 colon it was above 100 µM; in the test on COLO 205 colon, above 100 µM.

For the compound `O=C(O)CCC(=O)OC1N=C(c2ccccc2Cl)c2cc([N+](=O)[O-])ccc2NC1=O` (configuration not stated), the TGI with HOP-62 NSCLC is above 100 µM; in the test on ACHN renal it was above 100 µM; in the test on SNB-19 CNS it was above 100 µM; in the test on OVCAR-4 ovarian it was above 100 µM; in the test with DU-145 prostate it was above 100 µM; with HCT-116 colon, 65.6 µM. For the same compound, the TGI with BT-549 breast, in the test with A498 renal, in the test on T-47D breast, with MDA-N, in the test on UACC-62 melanoma and with A549 NSCLC was above 100 µM throughout. The TGI with LOX IMVI melanoma, with NCI/ADR-RES ovarian, in the test on HOP-92 NSCLC and in the test with HCT-15 colon was above 100 µM each time.

Consider `O=C(/C=C/c1ccc2c(c1)OCO2)CC(=O)C(=O)c1c[nH]c2ccccc12`, for which the TGI was above 100 µM with HOP-62 NSCLC; above 100 µM in the test with ACHN renal; above 100 µM with SNB-19 CNS; 84.6 µM in the test with K-562 leukemia; above 100 µM in the test on DU-145 prostate; above 100 µM in the test on HCT-116 colon. The TGI in the test on BT-549 breast was above 100 µM; in the test with A498 renal, above 100 µM; in the test with T-47D breast it was 62.1 µM; in the test on MDA-N it was 91.3 µM; with UACC-62 melanoma it was above 100 µM; in the test with A549 NSCLC, above 100 µM. Moreover, the TGI with LOX IMVI melanoma, in the test on NCI/ADR-RES ovarian, in the test with SK-MEL-5 melanoma, in the test with HOP-92 NSCLC, in the test on HCT-15 colon and with COLO 205 colon was above 100 µM throughout.

On to `CC(=N/N=C/c1ccccn1)/C(C)=N/N=C(C)/C(C)=N/N=C(C)/C(C)=N/N=C(C)/C(C)=N\N=C\c1ccccn1`, for which the TGI with HOP-62 NSCLC, with ACHN renal, in the test with SNB-19 CNS, in the test with K-562 leukemia, in the test on OVCAR-4 ovarian and with DU-145 prostate was above 100 µM in each case. The TGI in the test on HCT-116 colon, with BT-549 breast, in the test on A498 renal, in the test on T-47D breast, in the test with NCI-H226 lung and with MDA-N was above 100 µM each time. Besides, the TGI in the test on A549 NSCLC, in the test with LOX IMVI melanoma, with NCI/ADR-RES ovarian, in the test on SK-MEL-5 melanoma, in the test on HOP-92 NSCLC and in the test with HCT-15 colon was above 100 µM each time. Also, in the test with COLO 205 colon, the TGI is above 100 µM.

Turning to `COc1ccc(-c2nc(SCC(=O)N/N=C/c3ccc(N(C)C)cc3)[nH]c2-c2ccc(OC)cc2)cc1`, the TGI in the test on HOP-62 NSCLC, in the test on ACHN renal, with SNB-19 CNS, in the test on K-562 leukemia, with OVCAR-4 ovarian and with DU-145 prostate was above 100 µM each time. In addition, the TGI in the test with HCT-116 colon, in the test on BT-549 breast, in the test with A498 renal, in the test with T-47D breast, in the test with MDA-N and with UACC-62 melanoma was above 100 µM in each case. Besides, the TGI with A549 NSCLC, in the test with LOX IMVI melanoma, with NCI/ADR-RES ovarian, with SK-MEL-5 melanoma, in the test on HOP-92 NSCLC and in the test on HCT-15 colon was above 100 µM in each case. The compound further registered a TGI with COLO 205 colon of 24.5 µM.

Consider `CC1(C)C2CCC1(C)[C@H](n1c(=O)n([C@@H]3CC4CCC3(C)C4(C)C)c(=O)n([C@@H]3CC4CCC3(C)C4(C)C)c1=O)C2`, for which the TGI in the test on HOP-62 NSCLC, in the test on ACHN renal, with K-562 leukemia, in the test on OVCAR-4 ovarian, in the test on DU-145 prostate and in the test with HCT-116 colon was above 100 µM throughout. Also, the TGI in the test on BT-549 breast was above 100 µM; with A498 renal, above 100 µM; in the test with T-47D breast it was above 100 µM; in the test with NCI-H226 lung, 76.4 µM; with MDA-N, above 100 µM; in the test with A549 NSCLC, above 100 µM. The TGI in the test with LOX IMVI melanoma, in the test with NCI/ADR-RES ovarian, in the test with SK-MEL-5 melanoma, in the test with HOP-92 NSCLC and in the test with HCT-15 colon was above 100 µM throughout.

With `CCC1(CC)C(=O)NN(C(=O)c2ccccc2)C1=O`, the TGI in the test on HOP-62 NSCLC, with ACHN renal, with SNB-19 CNS, with K-562 leukemia, in the test with OVCAR-4 ovarian and in the test with DU-145 prostate was above 100 µM each time. Besides, the TGI with HCT-116 colon, in the test with BT-549 breast, in the test with T-47D breast, with NCI-H226 lung, with MDA-N and in the test with UACC-62 melanoma was above 100 µM in each case. In addition, the TGI with A549 NSCLC, with LOX IMVI melanoma, in the test on NCI/ADR-RES ovarian, in the test on SK-MEL-5 melanoma, in the test on HCT-15 colon and in the test with COLO 205 colon was above 100 µM throughout.

For `CS(=O)c1ncc2c(n1)-c1ccccc1OC2` (configuration not stated), the TGI in the test on HOP-62 NSCLC, with ACHN renal, in the test on SNB-19 CNS, with K-562 leukemia, in the test with OVCAR-4 ovarian and in the test with DU-145 prostate was above 100 µM in each case. Also, the TGI in the test with HCT-116 colon, in the test on BT-549 breast, with T-47D breast, in the test on NCI-H226 lung, in the test on MDA-N and with UACC-62 melanoma was above 100 µM in each case. Further, the TGI in the test on A549 NSCLC, in the test with LOX IMVI melanoma, with NCI/ADR-RES ovarian, in the test on SK-MEL-5 melanoma, in the test with HOP-92 NSCLC and in the test with HCT-15 colon was above 100 µM each time. This compound also returned a TGI with COLO 205 colon above 100 µM.
